This is an account of results in ChEMBL document CHEMBL5442175, “EUbOPEN Chemogenomics Library - PDSP Secondary Binding” (2024).

Where a name gives a salt, the structure may show the parent alone. Bounds are passed on as bounds.

The target in test [1] is 5-hydroxytryptamine receptor 7 (Homo sapiens, UniProt P34969). Kind of test: PDSP Secondary Binding target: HTR7 - Compounds are tested at 10 uM concentration, plate are incubated at room temperature in the dark for 90 minutes. Reaction are stopped by vacuum filtration onto 0.3% polyethyleneimine soaked filter mats using Filtermate harvester. Scintillation cocktail is then melted onto microwave-dried filters on a hot plate and the radio activity is counted in Microbia counter.
Chain of 5-hydroxytryptamine receptor 7 (P34969 whole entry): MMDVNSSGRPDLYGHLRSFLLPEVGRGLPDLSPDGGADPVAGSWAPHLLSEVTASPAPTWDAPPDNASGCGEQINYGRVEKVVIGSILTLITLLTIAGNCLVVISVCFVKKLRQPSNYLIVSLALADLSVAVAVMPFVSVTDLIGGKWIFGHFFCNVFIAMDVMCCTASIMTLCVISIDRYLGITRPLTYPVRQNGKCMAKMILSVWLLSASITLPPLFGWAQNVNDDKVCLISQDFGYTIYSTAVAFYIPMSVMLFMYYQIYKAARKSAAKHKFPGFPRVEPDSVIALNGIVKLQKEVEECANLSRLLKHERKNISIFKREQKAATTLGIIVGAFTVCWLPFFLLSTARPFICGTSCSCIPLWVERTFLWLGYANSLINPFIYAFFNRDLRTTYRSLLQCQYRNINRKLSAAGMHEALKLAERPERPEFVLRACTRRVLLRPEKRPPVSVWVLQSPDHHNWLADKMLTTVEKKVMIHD

In test [2] the target is Sodium-dependent noradrenaline transporter (Homo sapiens, UniProt P23975). Nature of the test: PDSP Secondary Binding target: SLC6A2 - Compounds are tested at 10 uM concentration, plate are incubated at room temperature in the dark for 90 minutes. Reaction are stopped by vacuum filtration onto 0.3% polyethyleneimine soaked filter mats using Filtermate harvester. Scintillation cocktail is then melted onto microwave-dried filters on a hot plate and the radio activity is counted in Microbia counter.
Chain of Sodium-dependent noradrenaline transporter (P23975 whole entry): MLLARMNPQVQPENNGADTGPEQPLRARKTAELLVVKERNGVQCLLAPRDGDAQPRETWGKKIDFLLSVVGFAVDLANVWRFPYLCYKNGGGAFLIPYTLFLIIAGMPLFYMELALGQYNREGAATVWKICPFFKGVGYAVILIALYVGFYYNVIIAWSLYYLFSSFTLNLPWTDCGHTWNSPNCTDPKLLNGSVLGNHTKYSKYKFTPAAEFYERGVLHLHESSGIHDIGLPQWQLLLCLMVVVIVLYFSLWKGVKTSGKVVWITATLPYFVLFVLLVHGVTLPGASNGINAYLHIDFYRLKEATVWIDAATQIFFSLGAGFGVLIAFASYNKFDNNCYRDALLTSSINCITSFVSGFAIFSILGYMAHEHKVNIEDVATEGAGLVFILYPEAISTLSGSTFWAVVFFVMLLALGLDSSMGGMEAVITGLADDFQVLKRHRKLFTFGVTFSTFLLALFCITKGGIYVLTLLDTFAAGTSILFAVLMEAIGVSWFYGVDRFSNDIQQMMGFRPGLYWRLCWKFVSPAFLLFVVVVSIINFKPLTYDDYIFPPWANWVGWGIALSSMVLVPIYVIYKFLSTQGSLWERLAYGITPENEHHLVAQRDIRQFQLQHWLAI

In test [3] the target is T1, Alpha-1B adrenergic receptor (Homo sapiens, UniProt P35368).
T1 sequence (P35368 whole entry): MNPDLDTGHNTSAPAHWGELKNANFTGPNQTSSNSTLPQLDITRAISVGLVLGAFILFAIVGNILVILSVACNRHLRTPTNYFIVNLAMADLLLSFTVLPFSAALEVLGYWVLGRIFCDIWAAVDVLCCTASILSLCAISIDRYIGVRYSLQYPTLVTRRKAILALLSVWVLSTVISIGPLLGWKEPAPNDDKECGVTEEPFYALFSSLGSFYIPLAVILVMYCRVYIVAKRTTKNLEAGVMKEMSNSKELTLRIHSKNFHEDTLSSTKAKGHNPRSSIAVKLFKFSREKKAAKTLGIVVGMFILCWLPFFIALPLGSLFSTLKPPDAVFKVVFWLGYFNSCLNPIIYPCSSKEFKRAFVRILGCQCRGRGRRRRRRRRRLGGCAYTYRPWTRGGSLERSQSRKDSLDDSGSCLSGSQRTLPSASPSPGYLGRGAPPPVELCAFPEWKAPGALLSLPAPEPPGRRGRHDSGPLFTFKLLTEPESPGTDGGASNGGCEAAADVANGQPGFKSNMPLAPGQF
Kind of test: PDSP Secondary Binding target: ADRA1B - Compounds are tested at 10 uM concentration, plate are incubated at room temperature in the dark for 90 minutes. Reaction are stopped by vacuum filtration onto 0.3% polyethyleneimine soaked filter mats using Filtermate harvester. Scintillation cocktail is then melted onto microwave-dried filters on a hot plate and the radio activity is counted in Microbia counter.

Test [4] concerns the target T2, Alpha-2B adrenergic receptor (Homo sapiens, UniProt P18089).
T2 sequence (P18089 whole entry): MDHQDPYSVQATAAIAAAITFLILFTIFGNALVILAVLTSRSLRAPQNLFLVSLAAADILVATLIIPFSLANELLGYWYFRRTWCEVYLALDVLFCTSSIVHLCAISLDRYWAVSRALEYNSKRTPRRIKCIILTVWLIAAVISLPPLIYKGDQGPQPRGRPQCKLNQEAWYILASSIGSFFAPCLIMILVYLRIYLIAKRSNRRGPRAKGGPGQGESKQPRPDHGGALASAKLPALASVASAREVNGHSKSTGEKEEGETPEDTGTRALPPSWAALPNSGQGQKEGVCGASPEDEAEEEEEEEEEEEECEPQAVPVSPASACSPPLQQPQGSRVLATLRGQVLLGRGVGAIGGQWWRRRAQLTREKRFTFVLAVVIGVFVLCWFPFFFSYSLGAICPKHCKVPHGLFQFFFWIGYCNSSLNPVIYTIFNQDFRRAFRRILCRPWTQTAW
Nature of the test: PDSP Secondary Binding target: ADRA2B - Compounds are tested at 10 uM concentration, plate are incubated at room temperature in the dark for 90 minutes. Reaction are stopped by vacuum filtration onto 0.3% polyethyleneimine soaked filter mats using Filtermate harvester. Scintillation cocktail is then melted onto microwave-dried filters on a hot plate and the radio activity is counted in Microbia counter.

The target of test [5] is T3, Alpha-2C adrenergic receptor (Homo sapiens, UniProt P18825).
T3 sequence (P18825 whole entry): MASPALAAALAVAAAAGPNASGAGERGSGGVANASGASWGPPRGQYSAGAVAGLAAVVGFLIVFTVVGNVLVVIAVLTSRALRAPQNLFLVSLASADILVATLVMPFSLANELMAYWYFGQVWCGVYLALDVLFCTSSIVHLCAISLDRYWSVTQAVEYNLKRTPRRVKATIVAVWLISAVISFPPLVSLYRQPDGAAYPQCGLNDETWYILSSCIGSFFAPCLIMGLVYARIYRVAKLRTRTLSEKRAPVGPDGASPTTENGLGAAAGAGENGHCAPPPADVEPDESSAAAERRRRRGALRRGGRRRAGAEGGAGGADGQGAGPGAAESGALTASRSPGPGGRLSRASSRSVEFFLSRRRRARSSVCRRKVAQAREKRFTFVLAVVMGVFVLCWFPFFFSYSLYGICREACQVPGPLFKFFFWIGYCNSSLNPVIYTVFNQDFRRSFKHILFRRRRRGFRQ
Nature of the test: PDSP Secondary Binding target: ADRA2C - Compounds are tested at 10 uM concentration, plate are incubated at room temperature in the dark for 90 minutes. Reaction are stopped by vacuum filtration onto 0.3% polyethyleneimine soaked filter mats using Filtermate harvester. Scintillation cocktail is then melted onto microwave-dried filters on a hot plate and the radio activity is counted in Microbia counter.

The target in test [6] is T4, Alpha-1A adrenergic receptor (Homo sapiens, UniProt P35348).
T4 sequence (P35348 whole entry): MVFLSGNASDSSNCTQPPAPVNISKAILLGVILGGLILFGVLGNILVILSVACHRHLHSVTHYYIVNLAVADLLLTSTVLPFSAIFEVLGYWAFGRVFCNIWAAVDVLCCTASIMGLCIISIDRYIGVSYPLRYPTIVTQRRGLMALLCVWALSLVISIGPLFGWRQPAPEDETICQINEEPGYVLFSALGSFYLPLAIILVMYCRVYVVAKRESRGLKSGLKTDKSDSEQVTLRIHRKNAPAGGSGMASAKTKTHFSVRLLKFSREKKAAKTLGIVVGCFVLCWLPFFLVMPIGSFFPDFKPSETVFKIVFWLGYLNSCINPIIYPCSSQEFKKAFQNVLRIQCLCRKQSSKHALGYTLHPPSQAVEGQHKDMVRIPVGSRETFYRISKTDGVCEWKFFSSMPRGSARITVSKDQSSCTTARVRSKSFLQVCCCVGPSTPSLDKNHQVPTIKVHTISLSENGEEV
Kind of test: PDSP Secondary Binding target: ADRA1A - Compounds are tested at 10 uM concentration, plate are incubated at room temperature in the dark for 90 minutes. Reaction are stopped by vacuum filtration onto 0.3% polyethyleneimine soaked filter mats using Filtermate harvester. Scintillation cocktail is then melted onto microwave-dried filters on a hot plate and the radio activity is counted in Microbia counter.

Test [7] deals with T5, Muscarinic acetylcholine receptor M5 (Homo sapiens, UniProt P08912).
T5 sequence (P08912 whole entry): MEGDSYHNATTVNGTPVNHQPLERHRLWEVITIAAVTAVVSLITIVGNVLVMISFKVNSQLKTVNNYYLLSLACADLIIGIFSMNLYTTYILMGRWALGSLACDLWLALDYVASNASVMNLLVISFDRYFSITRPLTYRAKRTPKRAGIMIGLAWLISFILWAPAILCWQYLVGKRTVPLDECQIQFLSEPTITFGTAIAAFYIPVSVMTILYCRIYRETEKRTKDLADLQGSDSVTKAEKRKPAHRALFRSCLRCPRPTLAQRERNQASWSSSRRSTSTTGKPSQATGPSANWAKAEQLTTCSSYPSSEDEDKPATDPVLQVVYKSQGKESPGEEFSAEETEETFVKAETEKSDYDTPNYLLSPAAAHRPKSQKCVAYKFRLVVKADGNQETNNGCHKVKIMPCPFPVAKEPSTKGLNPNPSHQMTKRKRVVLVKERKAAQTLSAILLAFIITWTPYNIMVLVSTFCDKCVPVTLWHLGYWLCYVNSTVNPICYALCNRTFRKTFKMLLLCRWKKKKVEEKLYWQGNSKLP
Kind of test: PDSP Secondary Binding target: CHRM5 - Compounds are tested at 10 uM concentration, plate are incubated at room temperature in the dark for 90 minutes. Reaction are stopped by vacuum filtration onto 0.3% polyethyleneimine soaked filter mats using Filtermate harvester. Scintillation cocktail is then melted onto microwave-dried filters on a hot plate and the radio activity is counted in Microbia counter.

The target of test [8] is T6, 5-hydroxytryptamine receptor 1A (Homo sapiens, UniProt P08908).
T6 sequence (P08908 whole entry): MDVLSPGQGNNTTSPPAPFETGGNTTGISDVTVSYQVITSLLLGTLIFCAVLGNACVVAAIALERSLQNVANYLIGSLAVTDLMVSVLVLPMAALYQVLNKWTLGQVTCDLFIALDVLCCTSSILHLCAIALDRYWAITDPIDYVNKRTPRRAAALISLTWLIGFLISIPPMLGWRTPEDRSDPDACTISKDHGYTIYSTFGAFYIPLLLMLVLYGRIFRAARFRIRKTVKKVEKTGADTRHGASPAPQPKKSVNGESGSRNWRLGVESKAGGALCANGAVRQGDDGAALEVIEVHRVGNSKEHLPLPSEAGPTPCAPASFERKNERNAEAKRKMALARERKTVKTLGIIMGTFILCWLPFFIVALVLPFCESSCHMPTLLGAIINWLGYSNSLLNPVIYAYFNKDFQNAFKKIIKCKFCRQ
Nature of the test: PDSP Secondary Binding target: HTR1A - Compounds are tested at 10 uM concentration, plate are incubated at room temperature in the dark for 90 minutes. Reaction are stopped by vacuum filtration onto 0.3% polyethyleneimine soaked filter mats using Filtermate harvester. Scintillation cocktail is then melted onto microwave-dried filters on a hot plate and the radio activity is counted in Microbia counter.

The next test concerns the target Translocator protein (Homo sapiens, UniProt P30536). Kind of test: PDSP Secondary Binding target: TSPO - Compounds are tested at 10 uM concentration, plate are incubated at room temperature in the dark for 90 minutes. Reaction are stopped by vacuum filtration onto 0.3% polyethyleneimine soaked filter mats using Filtermate harvester. Scintillation cocktail is then melted onto microwave-dried filters on a hot plate and the radio activity is counted in Microbia counter.

The next test deals with D(1B) dopamine receptor (Homo sapiens, UniProt P21918). Nature of the test: PDSP Secondary Binding target: DRD5 - Compounds are tested at 10 uM concentration, plate are incubated at room temperature in the dark for 90 minutes. Reaction are stopped by vacuum filtration onto 0.3% polyethyleneimine soaked filter mats using Filtermate harvester. Scintillation cocktail is then melted onto microwave-dried filters on a hot plate and the radio activity is counted in Microbia counter.
Chain of D(1B) dopamine receptor (P21918 whole entry): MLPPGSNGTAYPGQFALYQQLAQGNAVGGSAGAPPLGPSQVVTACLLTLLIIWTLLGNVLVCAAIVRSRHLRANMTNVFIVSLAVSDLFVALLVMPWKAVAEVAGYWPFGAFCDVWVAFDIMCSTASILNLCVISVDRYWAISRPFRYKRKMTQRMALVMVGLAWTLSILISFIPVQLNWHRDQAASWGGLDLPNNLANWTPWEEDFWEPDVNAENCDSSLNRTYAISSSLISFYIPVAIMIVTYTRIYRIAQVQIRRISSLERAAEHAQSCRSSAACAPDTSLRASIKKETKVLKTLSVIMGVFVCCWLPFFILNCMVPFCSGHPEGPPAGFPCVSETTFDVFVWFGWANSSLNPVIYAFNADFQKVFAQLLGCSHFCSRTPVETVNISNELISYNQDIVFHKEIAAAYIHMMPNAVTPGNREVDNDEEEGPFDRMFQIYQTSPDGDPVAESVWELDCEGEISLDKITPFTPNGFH

The target of test [9] is 5-hydroxytryptamine receptor 1B (Homo sapiens, UniProt P28222). Kind of test: PDSP Secondary Binding target: HTR1B - Compounds are tested at 10 uM concentration, plate are incubated at room temperature in the dark for 90 minutes. Reaction are stopped by vacuum filtration onto 0.3% polyethyleneimine soaked filter mats using Filtermate harvester. Scintillation cocktail is then melted onto microwave-dried filters on a hot plate and the radio activity is counted in Microbia counter.
Chain of 5-hydroxytryptamine receptor 1B (P28222 whole entry): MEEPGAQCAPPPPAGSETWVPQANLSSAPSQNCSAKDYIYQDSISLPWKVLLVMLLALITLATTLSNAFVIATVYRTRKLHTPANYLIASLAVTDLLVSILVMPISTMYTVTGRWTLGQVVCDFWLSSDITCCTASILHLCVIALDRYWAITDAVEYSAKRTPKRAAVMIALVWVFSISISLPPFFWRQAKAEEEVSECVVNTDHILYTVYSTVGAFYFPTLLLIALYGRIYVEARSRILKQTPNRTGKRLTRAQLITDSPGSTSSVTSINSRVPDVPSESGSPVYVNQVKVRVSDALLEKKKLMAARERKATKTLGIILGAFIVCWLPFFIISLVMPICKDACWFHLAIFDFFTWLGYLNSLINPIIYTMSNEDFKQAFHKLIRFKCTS

The target of test [10] is 5-hydroxytryptamine receptor 1D (Homo sapiens, UniProt P28221). Nature of the test: PDSP Secondary Binding target: HTR1D - Compounds are tested at 10 uM concentration, plate are incubated at room temperature in the dark for 90 minutes. Reaction are stopped by vacuum filtration onto 0.3% polyethyleneimine soaked filter mats using Filtermate harvester. Scintillation cocktail is then melted onto microwave-dried filters on a hot plate and the radio activity is counted in Microbia counter.
Chain of 5-hydroxytryptamine receptor 1D (P28221 whole entry): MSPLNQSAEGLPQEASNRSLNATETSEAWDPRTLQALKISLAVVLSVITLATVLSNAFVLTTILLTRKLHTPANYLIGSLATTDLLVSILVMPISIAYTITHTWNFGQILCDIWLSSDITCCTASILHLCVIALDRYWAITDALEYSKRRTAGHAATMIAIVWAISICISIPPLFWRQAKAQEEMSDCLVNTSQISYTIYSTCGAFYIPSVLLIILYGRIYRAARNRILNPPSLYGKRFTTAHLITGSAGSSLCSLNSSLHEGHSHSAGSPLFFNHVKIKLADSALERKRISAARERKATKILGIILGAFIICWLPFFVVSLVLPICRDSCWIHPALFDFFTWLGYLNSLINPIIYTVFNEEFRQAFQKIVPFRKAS

Test [11] has as its target 5-hydroxytryptamine receptor 5A (Homo sapiens, UniProt P47898). Kind of test: PDSP Secondary Binding target: HTR5A - Compounds are tested at 10 uM concentration, plate are incubated at room temperature in the dark for 90 minutes. Reaction are stopped by vacuum filtration onto 0.3% polyethyleneimine soaked filter mats using Filtermate harvester. Scintillation cocktail is then melted onto microwave-dried filters on a hot plate and the radio activity is counted in Microbia counter.

For test [12], the target named is Sodium-dependent dopamine transporter (Homo sapiens, UniProt Q01959). Kind of test: PDSP Secondary Binding target: SLC6A3 - Compounds are tested at 10 uM concentration, plate are incubated at room temperature in the dark for 90 minutes. Reaction are stopped by vacuum filtration onto 0.3% polyethyleneimine soaked filter mats using Filtermate harvester. Scintillation cocktail is then melted onto microwave-dried filters on a hot plate and the radio activity is counted in Microbia counter.
Chain of Sodium-dependent dopamine transporter (Q01959 whole entry): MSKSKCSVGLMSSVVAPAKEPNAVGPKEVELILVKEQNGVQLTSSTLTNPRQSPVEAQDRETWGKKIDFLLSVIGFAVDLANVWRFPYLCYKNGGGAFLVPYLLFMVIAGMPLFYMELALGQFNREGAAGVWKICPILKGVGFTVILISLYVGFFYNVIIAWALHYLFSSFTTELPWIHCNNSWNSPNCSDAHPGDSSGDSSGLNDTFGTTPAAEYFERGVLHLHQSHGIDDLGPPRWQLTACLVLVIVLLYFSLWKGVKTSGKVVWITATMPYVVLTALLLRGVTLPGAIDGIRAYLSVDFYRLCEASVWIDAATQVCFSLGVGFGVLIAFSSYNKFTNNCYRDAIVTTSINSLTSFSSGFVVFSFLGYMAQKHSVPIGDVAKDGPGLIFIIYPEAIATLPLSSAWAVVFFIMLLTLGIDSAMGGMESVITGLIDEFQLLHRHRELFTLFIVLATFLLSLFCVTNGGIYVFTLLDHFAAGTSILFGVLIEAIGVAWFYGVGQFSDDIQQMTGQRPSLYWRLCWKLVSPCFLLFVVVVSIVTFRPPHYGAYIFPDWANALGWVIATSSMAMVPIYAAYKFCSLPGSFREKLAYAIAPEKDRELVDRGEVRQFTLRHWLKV

Test [13] addresses Sigma intracellular receptor 2 (Homo sapiens, UniProt Q5BJF2). Nature of the test: PDSP Secondary Binding target: TMEM97 - Compounds are tested at 10 uM concentration, plate are incubated at room temperature in the dark for 90 minutes. Reaction are stopped by vacuum filtration onto 0.3% polyethyleneimine soaked filter mats using Filtermate harvester. Scintillation cocktail is then melted onto microwave-dried filters on a hot plate and the radio activity is counted in Microbia counter.

Chain of Translocator protein (P30536 whole entry): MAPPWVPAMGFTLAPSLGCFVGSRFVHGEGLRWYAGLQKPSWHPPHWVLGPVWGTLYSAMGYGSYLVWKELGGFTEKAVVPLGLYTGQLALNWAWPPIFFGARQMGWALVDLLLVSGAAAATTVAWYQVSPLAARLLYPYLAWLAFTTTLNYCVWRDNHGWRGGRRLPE
Chain of Sigma intracellular receptor 2 (Q5BJF2 whole entry): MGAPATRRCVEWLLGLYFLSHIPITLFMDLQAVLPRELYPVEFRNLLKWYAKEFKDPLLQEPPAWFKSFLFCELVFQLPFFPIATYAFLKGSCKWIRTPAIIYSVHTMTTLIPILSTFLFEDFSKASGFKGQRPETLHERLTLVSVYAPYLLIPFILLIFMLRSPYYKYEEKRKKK
Chain of 5-hydroxytryptamine receptor 5A (P47898 whole entry): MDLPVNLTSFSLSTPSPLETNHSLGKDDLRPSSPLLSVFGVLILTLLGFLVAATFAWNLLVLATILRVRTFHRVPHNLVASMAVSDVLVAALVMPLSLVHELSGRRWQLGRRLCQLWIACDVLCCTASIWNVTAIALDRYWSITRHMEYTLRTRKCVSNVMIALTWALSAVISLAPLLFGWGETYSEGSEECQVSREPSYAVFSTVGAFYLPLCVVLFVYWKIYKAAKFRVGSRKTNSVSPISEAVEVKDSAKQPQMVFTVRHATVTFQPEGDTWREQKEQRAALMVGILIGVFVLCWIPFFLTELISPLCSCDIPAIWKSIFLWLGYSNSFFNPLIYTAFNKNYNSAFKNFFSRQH

Consider `Cc1cccc([C@H](C)c2cnc[nH]2)c1C` [DEXMEDETOMIDINE HYDROCHLORIDE], for which the Ki (commonly the equilibrium dissociation constant of an inhibitor or competing ligand from its target) is 923 nM in test [1]; 3260 nM in test [2]; 2980 nM in [3]; 12.1 nM in [4]; 39.4 nM in test [5]; 749 nM in [6].

Regarding `COc1ccnc(N2CCC3(CCCN(Cc4c[nH]c5ccccc45)C3=O)CC2)n1`, the Ki is above 10000 nM in test [7], 3260 nM in test [8] and 803 nM on Translocator protein.

In the case of `O=C(O)c1cc(-c2ccc(C3CCNCC3)cc2)c2ccc(-c3ccc(C(F)(F)F)cc3)cc2c1`, the Ki in test [7] came out at 2190 nM; on D(1B) dopamine receptor it was 1050 nM; in test [8], 2540 nM; in [9], 1160 nM; in test [10], 1190 nM; in [11], 2400 nM. For the same compound, the Ki turned out to be 3300 nM in [1], 1850 nM in [2], 1220 nM in test [12] and 1060 nM in [13].
